Key:
[1] = tested on: human influenza A virus NWS/33, H1N1; assay type: cell-based
[2] = tested on: human influenza A virus NWS/33, H1N1; assay type: cell-based; remark: listed apart in the source
[3] = tested on: virus-induced polypeptides of A/NWS/33 in LLC-MK2 cells; assay type: cell-based, influenza A virus; conditions: MESNA 20 mg/ml, effect particularly evident at 1, 2, 5, 1.0, 15 mg/ml
[4] = tested on: human influenza A virus NWS/33, H1N1; assay type: cell-based; remark: listed apart in the source
[5] = tested on: virus-specific receptors located on red blood cells; set-up: species or system human; conditions: red blood cells used for the haemagglutination assay
[6] = tested on: viral haemagglutinin HA antigen on the cellular surface of infected LLC-MK2 cells; assay type: cell-based, influenza A virus; conditions: 24 and 48 hours post infection; treated versus untreated infected LLC-MK2 cells
[7] = tested on: avian influenza A virus Ulster/73, H7N1; assay type: cell-based; conditions: A/Ulster/73, H7N1 strain

Structure (SMILES) | antiviral action in comparison studies (all experiments repeated) [1] | time of addition up to which MESNA is effective [2] [hours post infection] | synthesis of virus-induced polypeptides (early and late viral proteins) [3] | virus production (haemagglutination, presence/absence of mature viral particles) [1] | reversibility of inhibition of the production of viral particles [4] | interference with virus-specific receptors on red blood cells [5] | haemagglutinin molecules on the surface of infected cells (haemadsorption values) [6] | results with avian strain compared with human influenza virus A/NWS/33 [7]
O=C([O-])CN(CCN(CC(=O)[O-])CC(=O)[O-])CC(=O)[O-].[Na+].[Na+].[Na+].[Na+] [sodium edetate] | not able to exert an antiviral action | – | – | – | – | – | – | –
O=S(=O)([O-])CCS.[Na+] [MESNA, Sodium 2-mercaptoethanesulfonate] | – | ≤ 6 | marked reduction | able to suppress virus production | irreversible inhibition | did not interfere | great reduction, if not the absence | completely reproducible and absolutely comparable
